Here are results for four molecules from ChEMBL document CHEMBL1201862, “PubChem BioAssay data set” (2004).

Some test systems named below: SK-OV-3; MCF7; UO-31; SW-620; SK-MEL-5; ACHN; T47D; Hs-578T; SNB-75; MDA-MB-435; NCI-H460; DU-145; SK-MEL-28; HL-60; A549; RXF 393; U-251; MDA-MB-231; PC-3; OVCAR-8.
Experiment in all cases: NCI anticancer screen, dose series, 48 h

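How tested: cells in 96-well plates exposed to compound for 48 hours at five concentrations. Here, GI50 denotes the concentration required for 50% inhibition of growth.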 Calls of active or inactive are those of the source. Rule as the data show it: active = GI50 up to about 1.1 µM and inactive = higher. Where only a bound is given, the exact number is not on record here.

Turning to `O=c1ssc(Cl)c1Nc1c(Cl)ssc1=O`, the GI50 in the assay with SK-OV-3 was 25900 nM (inactive); in the assay on MCF7, 24300 nM (inactive); with UO-31 it was 14400 nM (inactive); in the assay with SW-620 it was 15800 nM (inactive); in the assay with SK-MEL-5, 17000 nM (inactive); in the assay with ACHN, > 40000 nM (inactive). The GI50 in the assay on T47D was 9200 nM (inactive); in the assay on Hs-578T it was 36400 nM (inactive); with SNB-75 it was 25900 nM (inactive); in the assay with MDA-MB-435, 18000 nM (inactive); in the assay on NCI-H460, 18800 nM (inactive); with DU-145, 17300 nM (inactive). Moreover, the GI50 was 28400 nM (inactive) in the assay with SK-MEL-28; 7850 nM (inactive) in the assay on HL-60; 21700 nM (inactive) in the assay on A549; 15000 nM (inactive) with RXF 393; 19500 nM (inactive) in the assay with U-251; 22300 nM (inactive) with MDA-MB-231. Further, the figures for the GI50 in the assay with PC-3 and with OVCAR-8 were 18900 nM (inactive) and 21500 nM (inactive), respectively.
With `CC1CCC2(NC1)OC1CC3C4CC=C5CC(OC6OC(CO)C(OC7OC(C)C(O)C(O)C7O)C(O)C6OC6OC(C)C(O)C(O)C6O)CCC5(C)C4CCC3(C)C1C2C` (stereo not given), the GI50 in the assay on SK-OV-3 is 7180 nM (inactive); in the assay on MCF7, 2320 nM (inactive); with UO-31, 7450 nM (inactive); in the assay on SW-620 it was 4400 nM (inactive); in the assay on SK-MEL-5, 5580 nM (inactive); in the assay on ACHN, 3910 nM (inactive). Besides, the GI50 with T47D was 7640 nM (inactive); in the assay on Hs-578T, 3870 nM (inactive); in the assay with SNB-75, 2500 nM (inactive); with MDA-MB-435 it was 2040 nM (inactive); in the assay with NCI-H460, 3550 nM (inactive); with DU-145, 4000 nM (inactive). Moreover, the GI50 is 1910 nM (inactive) in the assay with SK-MEL-28; 4410 nM (inactive) in the assay on HL-60; 3150 nM (inactive) with A549; 4050 nM (inactive) with RXF 393; 2840 nM (inactive) in the assay with U-251; 3780 nM (inactive) in the assay with MDA-MB-231. Besides, the values for the GI50 in the assay with PC-3 and in the assay on OVCAR-8 were 2090 nM (inactive) and 2880 nM (inactive), respectively.
On to `CC(=O)O[C@H]1C(=O)[C@@]2(C)[C@H]([C@H](OC(=O)c3ccoc3)[C@]3(O)C[C@H](OC(=O)[C@H](O)[C@@H](NC(=O)c4ccccc4)c4ccccc4)C(C)=C1C3(C)C)[C@]1(OC(C)=O)CO[C@@H]1C[C@@H]2O`, for which the GI50 is 57.8 nM (active) with SK-OV-3; 13.8 nM (active) with MCF7; > 8910 nM (inactive) in the assay with UO-31; 44.8 nM (active) with SW-620; 46.7 nM (active) in the assay with SK-MEL-5; 2100 nM (inactive) with ACHN. The GI50 in the assay on T47D was 46.1 nM (active); with Hs-578T it was 24.9 nM (active); in the assay on SNB-75, 141 nM (active); in the assay on MDA-MB-435, 4.56 nM (active); in the assay with NCI-H460 it was 52.4 nM (active); with DU-145, 352 nM (active). In addition, the GI50 in the assay on SK-MEL-28 was > 12500 nM (inactive); in the assay on HL-60, 10.7 nM (active); in the assay with A549, 115 nM (active); in the assay with RXF 393 it was 277 nM (active); with U-251 it was 81.1 nM (active); in the assay with MDA-MB-231, 3050 nM (inactive). Further, the GI50 is 53 nM (active) in the assay on PC-3 and 79.8 nM (active) in the assay on OVCAR-8.
Regarding `N#CC(C#N)=C/C=C/c1c(Cl)cccc1Cl`, the GI50 with SK-OV-3 is 2560 nM (inactive); in the assay with MCF7, 1940 nM (inactive); in the assay on UO-31, 1840 nM (inactive); in the assay with SW-620, 1920 nM (inactive); in the assay on SK-MEL-5, 1850 nM (inactive); with ACHN it was 1600 nM (inactive). The GI50 is 2240 nM (inactive) in the assay on T47D; 1970 nM (inactive) with Hs-578T; 2840 nM (inactive) with SNB-75; 2140 nM (inactive) with MDA-MB-435; 1870 nM (inactive) in the assay with NCI-H460; 1710 nM (inactive) with DU-145. The GI50 in the assay with SK-MEL-28 is 1640 nM (inactive); in the assay with HL-60, 698 nM (active); with A549 it was 2750 nM (inactive); in the assay on RXF 393, 1580 nM (inactive); in the assay with U-251, 1810 nM (inactive); in the assay on MDA-MB-231, 1850 nM (inactive). Besides, the values for the GI50 in the assay on PC-3 and in the assay on OVCAR-8 were 1810 nM (inactive) and 1530 nM (inactive), respectively.
